Read-outs that look alike come from different tables or passages of the source. Marks after values point to notes of the source that are not given here. Values belong to the molecule of their own block, whether it stands above or below them.
Assays:
[1] = tested on: retinal ganglion cell axons; test: Protection of retinal ganglion cell axons from degeneration 14 days after optic nerve transection (Table V); format: in vivo; conditions: ± SEM
Excerpt: Efficacy of representative compounds from different immunophilin ligand series in protecting retinal ganglion cell axons from degeneration following optic nerve transection is set forth in Table V.

FKBP12 = FKBP12 (Homo sapiens, UniProt P62942); test: Ki test procedure: inhibition of peptidyl-prolyl isomerase (rotamase) activity, chymotrypsin-coupled assay; format: biochemical
Excerpt: The inhibition of the prolyl peptidyl cis-trans isomerase activity of FKBP may be measured as an indicator of this affinity. Inhibition of the peptidyl-prolyl isomerase (rotamase) activity of the compounds used in the inventive methods and pharmaceutical compositions can be evaluated by known methods described in the literature (Harding et al., Nature, 1989, 341:758-760; Holt et al. J. Am. Chem. Soc., 115:9923-9938). […] The cis-trans isomerization of an alanine-proline bond in a model substrate, N-succinyl-[…]-nitroanilide, is monitored spectrophotometrically in a chymotrypsin-coupled assay, which releases para-nitroanilide from the trans form of the substrate. The inhibition of this reaction caused by the addition of different concentrations of inhibitor is determined, and the data is analyzed as a change in first-order rate constant as a function of inhibitor concentration to yield the apparent Ki values. […] The reaction is initiated by the addition of […] of substrate (succinyl-[…]-nitroanilide, 5 mg/mL in 2.35 mM LiCl in trifluoroethanol). The absorbance at 390 nm versus time is monitored for 90 seconds using a spectrophotometer and the rate constants are determined from the absorbance versus time data files.

[2] = Clearance (Table V comments); format: in vitro ADME
[3] = tested on: retinal ganglion cells and optic nerve axons; test: Optic nerve transection, 14 or 28 day treatment, evaluated 90 days after transection; format: in vivo, Sprague Dawley rats; conditions: for Proximal optic nerve myelin basic protein Density: % areal coverage of optic nerve cross section, ± SEM; for Distal optic nerve: shrinkage of cross sectional area: compared to sham control
Excerpt: All eyes and optic nerves stumps were removed.

[4] = tested on: streptozotocin-induced diabetic rat; test: Streptozotocin-induced diabetic sensory neuropathy, hot plate and tail flick; format: in vivo, Male Wistar rats; conditions: lesioned animals treated for 6 weeks at 10 mg/kg s.c.
Protocol: The procedure involved using Male Wistar rats which were given a single injection of streptozotocin (65 mg/kg i.v.). Blood glucose levels were determined weekly for the first three weeks and on the last week of the experiment. Animals were evaluated weekly for signs of sensory neuropathy using the conventional hot plate and tail flick apparatus test procedures.

retinal ganglion cells = test: Example 13: optic nerve transection, 28 days treatment, sacrifice 90 days after transection; format: in vivo, Sprague Dawley rats; conditions: 10 mg/kg/day s.c. for 28 days
[5] = apparent Ki, Table C, read-out: Ki
[6] = Table V comments, read-out: Ki rotamase

Chain of FKBP12 (P62942 whole entry, species assumed): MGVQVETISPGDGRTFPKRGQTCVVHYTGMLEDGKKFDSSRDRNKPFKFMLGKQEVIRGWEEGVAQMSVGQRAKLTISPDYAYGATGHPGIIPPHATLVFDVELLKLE

Structure (SMILES): CCC(C)(C)C(=O)C(=O)N1CCS[C@@H]1C(=O)OCCCc1cccnc1 [F]
RT97 + RGC axon density 14 days after ON transection (% ON axons rescued) [1]: 55.1% ± 5.9% SEM

Structure (SMILES): CCC(C)(C)C(=O)C(=O)N1CCCC[C@H]1C(N)=O [H]
RT97 + RGC axon density 14 days after ON transection (% ON axons rescued) [1]: 30.3% ± 8.0% SEM

Structure (SMILES): COc1ccc(CCCCOC(=O)C2CCCCN2C(=O)C(=O)c2cc(OC)c(OC)c(OC)c2)cc1 (centres unmarked) [Compound 25]
Ki (FKBP12; [5]): 0.013 µM

Structure (SMILES): O=C(OCCCCc1ccccc1)[C@@H]1CCCCN1S(=O)(=O)Cc1ccccc1 [D]
RT97 + RGC axon density 14 days after ON transection (% ON axons rescued) [1]: 58.4% ± 6.4% SEM

Structure (SMILES): CCC(C)(C)C(=O)C(=O)N1CCC[C@H]1C(=O)SCCC(c1ccccc1)c1ccccc1 [M]
RT97 + RGC axon density 14 days after ON transection (% ON axons rescued) [1]: −6.3% + 3.9% SEM

Structure (SMILES): CCC(C)(C)C(=O)C(=O)N1CCC[C@H]1C(=O)CCCCc1cccnc1 [J]
RT97 + RGC axon density 14 days after ON transection (% ON axons rescued) [1]: 15.8% ± 4.8% SEM

Structure (SMILES): O=C(SCCCc1ccccc1)[C@@H]1CCCN1C(=O)NC12CC3CC4(CC(C3)(C4)C1)C2 [Compound B]
RT97 + RGC axon density 14 days after ON transection (% ON axons rescued) [1]: 100.0% ± 5.2% SEM
Ki (FKBP12; [6]): 0.149 µM

Structure (SMILES): CCC(C)(C)C(=O)C(=O)N1CCCC[C@H]1C(=O)SCCC(c1ccccc1)c1ccccc1 [Compound K]
RT97 + RGC axon density 14 days after ON transection (% ON axons rescued) [1]: 13.0% ± 4.2% SEM
Clearance [2]: 4.5 µL/min

Structure (SMILES): CCC(C)(C)C(=O)C(=O)N1CCC[C@H]1C(=O)OCCCc1cccnc1 [GPI 1046]
Proximal optic nerve myelin basic protein Density ([3]; ONT/14 days GPI 1046): did not alter the pattern of myelin degeneration
Distal optic nerve: shrinkage of cross sectional area ([3]; ONT/14 days GPI 1046): did not protect against shrinkage of the distal stump
Distal optic nerve myelin basic protein Density: myelin loss ([3]; ONT/14 days GPI 1046, cross sectional area multiplied by myelin density): slightly increase the density,of myelin
RGC Counts ([3]; ONT/28 days GPI 1046, 10 mg/kg/day sc, 90 days after transection, mean density of Fluoro-gold labeled RGC in 400 μm × 400 μm gridfields): 67.9 +
Proximal optic nerve myelin basic protein Density ([3]; ONT/28 days GPI 1046): dramatic preservation of the fascicular staining pattern
ON axon Count ([3]; ONT/28 days GPI 1046, calculated by multiplying axonal density by ON area): 22.861*
Distal optic nerve: shrinkage of cross sectional area ([3]; ONT/28 days GPI 1046): prevented cross sectional shrinkage
Distal optic nerve myelin basic protein Density: myelin preservation ([3]; ONT/28 days GPI 1046, cross sectional area multiplied by myelin density): 99% myelin % myelin preservation
latency in hot plate and tail flick [4]: improvement in latency
preservation of axons in the proximal stump (RT97 neurofilament immunohistochemistry) (retinal ganglion cells): preserved the axons of virtually all protected neurons

Continued, in another order:

Ki (FKBP12; [6]): ≥ 7.74 µM
Structure (SMILES): CCC(C)(C)C(=O)C(=O)N1CCC[C@H]1C(=O)O [L]

Clearance [2]: 41.8 µL/min
Structure (SMILES): CCC(C)(C)C(=O)C(=O)N1CCCC[C@H]1C(=O)OC(CCc1ccccc1)CCc1ccccc1 [E]

Ki (FKBP12; [5]): 20 µM
Structure (SMILES): COC(=O)C(=O)N1CCCCC1C(=O)OCCCC1CCCCC1 (centres unmarked) [Compound 18]

Ki (FKBP12; [6]): > 10 µM
Structure (SMILES): CCC(C)(C)C(=O)C(=O)N1CCCC[C@H]1C(=O)O [G]
RT97 + RGC axon density 14 days after ON transection (% ON axons rescued) [1]: 34.0% ± 4.8% SEM

Ki (FKBP12; [5]): 35 µM
Structure (SMILES): COC(=O)C(=O)N1CCCCC1C(=O)OCCCC1CCCC1 (centres unmarked) [Compound 19]

From patent US6335348B1, “Nitrogen-containing linear and azepinyl/ compositions and uses for vision and memory disorders” (GPI NIL Holdings, Inc., priority 1998, dated 2002)
